The results in this text go back to patent US11542233B2, “Compounds, compositions and methods of use” (Aquinnah Pharmaceuticals, Inc., priority 2016, dated 2023).

For orientation: IC50 means the concentration needed to halve the response being measured.

Molecules are shown by their SMILES.

In this assay the test system is TDP-43 aggregation in PC12 cells stably expressing GFP-tagged mutant TDP-43 (TDP-43^Q33IK::eGFP). The experiment in a line: In vitro efficacy assay: inhibition of TDP-43 inclusions, concentration-response, fluorescence microscopy. The class given is cell-based. The following applies: Rattus norvegicus, PC-12, PC12 cells, 1 hour pre-treatment, 15 μM sodium arsenite for 23 hours, 10-point dose response curve. Here is the method: Exemplary compounds of the invention were evaluated for efficacy in inhibiting TDP-43 inclusions using a concentration-response assay. Briefly, PC12 cells stably expressing a GFP-tagged mutant form of TDP-43 (TDP-43^Q33IK::eGFP) were pre-treated for 1 hour with exemplary compounds and stressed with 15 μM sodium arsenite for 23 hours to induce TDP-43 aggregation. The inhibitory effect on TDP-43 aggregation was measured using fluorescence microscopy. The ratio of cells with TDP-43 aggregates was calculated based on the total number of cells with detectable GFP expression. In the table, “A” indicates an IC50 of less than 100 nM, “B” indicates an IC50 range from 100 nM to 500 nM; “C” indicates an IC50 range from 500 nM to 2 μM; and “D” indicates an IC50 greater than 2 μM.

Take `CCN(C(=O)c1cc2ccccc2[nH]1)[C@@H]1COC[C@@H](N[C@@H]2CCc3ccccc32)C1` [Compound 507, N-((3S,5S)-5-(((R)-2,3-dihydro-1H-inden-1-yl)amino)tetrahydro-2H-pyran-3-yl)-N-ethyl-1H-indole-2-carboxamide]: the concentration for half-maximal inhibition (IC50) was above 2000 nM. Next, `CCN(C(=O)c1cc2ccccc2[nH]1)[C@H]1CCC[C@@H](NC2(c3ccccc3)COC2)C1` [Compound 318, N-ethyl-N-((1S,3R)-3-((3-phenyloxetan-3-yl)amino)cyclohexyl)-1H-indole-2-carboxamide]: 500 to 2000 nM; `CCN(C(=O)c1cc2cc(C#N)ccc2[nH]1)[C@H]1CCC[C@@H](NCc2ccc(F)cc2)C1` [Compound 532, 5-cyano-N-ethyl-N-((1S,3R)-3-((4-fluorobenzyl)amino)cyclohexyl)-1H-indole-2-carboxamide]: below 100 nM. Next, `O=C(c1cc2ccccc2[nH]1)N(CC(F)(F)F)[C@H]1CCC[C@H](NCc2ccncc2)C1` [Compound 176]: above 2000 nM; `CCN(C(=O)c1nc2ccccc2[nH]1)[C@H]1CCC[C@@H](NCc2ccc3ocnc3c2)C1` [Compound 489]: below 100 nM. Under `CCN(C(=O)c1cc2c([nH]1)CC(C)(C)OC2)[C@H]1CCC[C@@H](NCc2ccccc2)C1` [Compound 502, N-((1S,3R)-3-(benzylamino)cyclohexyl)-N-ethyl-6,6-dimethyl-1,4,6,7-tetrahydropyrano[4,3-b]pyrrole-2-carboxamide] stands 500 to 2000 nM; under `CCN(C(=O)c1cc2ccccc2[nH]1)[C@H]1CCC[C@@H](NCc2cccnc2)C1` [Compound 108], 100 to 500 nM. As to `CCN(C(=O)c1cc2ccccc2[nH]1)[C@H]1CCC[C@@H](NCc2ccc(S(C)(=O)=O)cc2)C1` [Compound 432], the IC50 lay in the range of 100 to 500 nM. For the compound `CCN(C(=O)c1cc2ncccc2[nH]1)[C@H]1CCC[C@@H](NC(C)(C)c2ccc(OC)cc2)C1` [Compound 408], the IC50 is below 100 nM. With `CCN(C(=O)c1nc2ccccc2[nH]1)[C@H]1CCC[C@@H](NCc2ccc3nccn3c2)C1` [Compound 474], the concentration for half-maximal inhibition (IC50) was in the range of 100 to 500 nM. For `CCN(C(=O)c1cc2ncccc2[nH]1)[C@H]1CCC[C@@H](NCc2ccc(N=[N+]=[N-])cc2)C1` [Compound 407], the IC50 was below 100 nM. Consider `CCN(C(=O)c1cc2ccccc2[nH]1)[C@H]1CCC[C@H](NCc2ccccc2)C1` [Compound 102], for which the IC50 fell in the range of 500 to 2000 nM. Next, `CCN(C(=O)c1cc2cc(C#N)ccc2[nH]1)[C@H]1CCC[C@@H](NCc2oc3ccccc3c2C)C1` [Compound 535]: below 100 nM. Next, `CCN(C(=O)c1cc2ncncc2[nH]1)[C@H]1CCC[C@@H](NCc2ccccc2)C1` [Compound 486]: 100 to 500 nM; `CCN(C(=O)c1nc2cc(F)ccc2[nH]1)[C@@]1(C)CCC[C@@H](NCc2ccccc2)C1` [Compound 556, N-((1S,3R)-3-(benzylamino)-1-methylcyclohexyl)-N-ethyl-5-fluoro-1H-benzo[d]imidazole-2-carboxamide]: above 2000 nM; `CCN(C(=O)c1cc2ccccc2[nH]1)[C@H]1CCC[C@@H](NCc2ccncc2)C1` [Compound 126]: 100 to 500 nM.

Turning to `CCN(C(=O)c1cc2ccccc2[nH]1)C1COC[C@@H](N[C@H]2CCc3ccccc32)C1` (stereo partly shown) [Compound 508], the IC50 was above 2000 nM. Turning to `CCN(C(=O)c1cc2cnccc2[nH]1)[C@H]1CCC[C@@H](NCc2ccccc2)C1` [Compound 401], the IC50 was 100 to 500 nM. Next, `CCN(C(=O)c1cc2ccccc2[nH]1)[C@H]1CCC[C@@H](N[C@@H]2CCc3ccccc32)C1` [Compound 121]: above 2000 nM.

For `CCN(C(=O)c1cc2ccccc2[nH]1)[C@H]1CCC[C@@H](NCc2nccs2)C1` [Compound 465, N-ethyl-N-((1S,3R)-3-((thiazol-2-ylmethyl)amino)cyclohexyl)-1H-indole-2-carboxamide], the IC50 was 500 to 2000 nM. With `[2H]C([2H])(N[C@@H]1CCC[C@H](N(CC)C(=O)c2nc3ccccc3[nH]2)C1)c1ccccc1` [Compound 522, N-ethyl-N-((1S,3R)-3-((phenylmethyl-d2)amino)cyclohexyl)-1H-benzo[d]imidazole-2-carboxamide], the IC50 was below 100 nM. With `CCN(C(=O)c1cc2ncccc2[nH]1)[C@H]1CCC[C@@H](NCc2ccnc(OC)c2)C1` [Compound 440], the IC50 was below 100 nM. For `CCN(C(=O)c1cc2ccccc2[nH]1)C1CCCC(NC2CCc3ccccc32)C1` (stereo not shown) [Compound 112], the IC50 is below 100 nM. Next, `CCN(C(=O)c1nc2c(F)cccc2[nH]1)[C@H]1CCC[C@@H](NCc2ccccc2)C1` [Compound 482]: below 100 nM. In the case of `CCN(C(=O)c1cc2ncccc2[nH]1)[C@H]1CCC[C@@H](NCc2nnc(C)s2)C1` [Compound 439], the IC50 is above 2000 nM. Next, `CCN(C(=O)c1cc2ccccc2[nH]1)[C@@H]1COC[C@H](N[C@@H]2CCc3ccccc32)C1` [Compound 505, N-((3S,5R)-5-(((R)-2,3-dihydro-1H-inden-1-yl)amino)tetrahydro-2H-pyran-3-yl)-N-ethyl-1H-indole-2-carboxamide]: above 2000 nM. As to `CCN(C(=O)c1cc2c(OC)cccc2[nH]1)[C@H]1CCC[C@@H](NCc2ccccc2)C1` [Compound 129], the IC50 is below 100 nM. Under `CCN(C(=O)c1cc2ccccc2[nH]1)[C@H]1CCC[C@@H](NCc2ncccn2)C1` [Compound 136] stands 100 to 500 nM; under `CCN(C(=O)c1cc2ncccc2[nH]1)[C@H]1CCC[C@@H](NCc2cccc(F)c2)C1` [Compound 150, N-ethyl-N-((1S,3R)-3-((3-fluorobenzyl)amino)cyclohexyl)-1H-pyrrolo[3,2-b]pyridine-2-carboxamide], below 100 nM; under `CCN(C(=O)c1nc2ccccc2[nH]1)[C@H]1CCC[C@@H](NCc2ccc3cncn3c2)C1` [Compound 492], below 100 nM. For `CCN(C(=O)c1cc2ncccc2[nH]1)[C@H]1CCC[C@@H](N[C@@H](c2ccccc2)C(F)(F)F)C1` (single isomer, unassigned) [Compound 417], the IC50 was in the range of 100 to 500 nM. For `CCN(C(=O)c1nc2ccccc2[nH]1)[C@H]1CCC[C@@H](NCc2cc(C3CC3)on2)C1` [Compound 515, N-((1S,3R)-3-(((5-cyclopropylisoxazol-3-yl)methyl)amino)cyclohexyl)-N-ethyl-1H-benzo[d]imidazole-2-carboxamide], the IC50 is below 100 nM. Turning to `CCN(C(=O)c1nc2ccccc2[nH]1)[C@H]1CCC[C@@H](NCc2cccc(OC)c2)C1` [Compound 477], the IC50 is below 100 nM. Under `CCN(C(=O)c1nc2cc(F)ccc2[nH]1)[C@H]1CCC[C@@H](NCc2cc3ccccc3o2)C1` [Compound 523] stands below 100 nM; under `CCN(C(=O)c1cc2ccccc2[nH]1)C1CCC[C@@H](NCc2ccccc2)C1` (stereo partly shown) [Compound 101], below 100 nM.

On to `CCN(C(=O)c1cc2ncccc2[nH]1)[C@H]1CCC[C@@H](NCc2cc(C3CC3)on2)C1` [Compound 436], for which the IC50 was below 100 nM. Next, `CCN(C(=O)c1cc2ncccc2[nH]1)[C@H]1CCC[C@@H](NCc2cnoc2)C1` [Compound 438]: above 2000 nM; `[2H]C([2H])(N[C@@H]1CCC[C@H](N(CC)C(=O)c2cc3ccccc3[nH]2)C1)c1ccccc1` [Compound 521, N-ethyl-N-((1S,3R)-3-((phenylmethyl-d2)amino)cyclohexyl)-1H-indole-2-carboxamide]: below 100 nM; `CCN(C(=O)c1cc2ccccc2[nH]1)[C@H]1CCC[C@@H](N[C@@H](c2ccccc2)C(F)(F)F)C1` [Compound 415]: above 2000 nM. Under `O=C(c1cc2ccccc2[nH]1)N(CC(F)(F)F)[C@H]1CCC[C@H](NCC2CCOCC2)C1` [Compound 182] stands 500 to 2000 nM; under `CCN(C(=O)c1cc2ccccc2[nH]1)[C@H]1CCC[C@@H](Nc2nnc(C3CC3)s2)C1` [Compound 499, N-((1S,3R)-3-((5-cyclopropyl-1,3,4-thiadiazol-2-yl)amino)cyclohexyl)-N-ethyl-1H-indole-2-carboxamide], above 2000 nM. For the compound `CCN(C(=O)c1cc2cc(C3CC3)ccc2[nH]1)[C@H]1CCC[C@@H](NCc2ccccc2)C1` [Compound 543], the IC50 is below 100 nM. `CCN(C(=O)c1cc2ccccc2[nH]1)[C@H]1CCC[C@@H](NCc2cccc(S(C)(=O)=O)c2)C1` [Compound 431]: the half-inhibitory concentration (IC50) is below 100 nM. As for `CCN(C(=O)c1cc2ccccc2[nH]1)[C@H]1CCC[C@@H](NCc2c[nH]cn2)C1` [Compound 466], the IC50 is above 2000 nM. As for `CCN(C(=O)c1cc2ncccc2[nH]1)[C@H]1CCC[C@@H](NCc2cnn(C)c2)C1` [Compound 448], the IC50 was below 100 nM. For the compound `CCN(C(=O)c1cc2ncccc2[nH]1)[C@H]1CCC[C@@H](NCc2cc(C3CC3)no2)C1` [Compound 435], the IC50 was below 100 nM. Take `O=C(c1cc2ccccc2[nH]1)N(CC(F)(F)F)[C@H]1CCC[C@@H](NCc2ccccc2)C1` [Compound 179]: the IC50 is below 100 nM. Under `CCN(C(=O)c1cc2ncccc2[nH]1)[C@H]1CCC[C@@H](NCc2nnc(C)o2)C1` [Compound 468, N-ethyl-N-((1S,3R)-3-(((5-methyl-1,3,4-oxadiazol-2-yl)methyl)amino)cyclohexyl)-1H-pyrrolo[3,2-b]pyridine-2-carboxamide] stands 500 to 2000 nM; under `O=C(c1cc2ccccc2[nH]1)N(CC(F)(F)F)[C@H]1CCC[C@@H](NCc2ccc(F)cc2)C1` [Compound 171], below 100 nM.
